From patent US9771370B2, “Compounds for the inhibition of indoleamine-2,3-dioxygenase” (Merck Patent GmbH, priority 2014, dated 2017) come the findings set out here.

The structures appear in SMILES notation.

For orientation: IC50 means the concentration that gives 50% inhibition.

Chain of Recombinant human IDO (P14902 whole entry): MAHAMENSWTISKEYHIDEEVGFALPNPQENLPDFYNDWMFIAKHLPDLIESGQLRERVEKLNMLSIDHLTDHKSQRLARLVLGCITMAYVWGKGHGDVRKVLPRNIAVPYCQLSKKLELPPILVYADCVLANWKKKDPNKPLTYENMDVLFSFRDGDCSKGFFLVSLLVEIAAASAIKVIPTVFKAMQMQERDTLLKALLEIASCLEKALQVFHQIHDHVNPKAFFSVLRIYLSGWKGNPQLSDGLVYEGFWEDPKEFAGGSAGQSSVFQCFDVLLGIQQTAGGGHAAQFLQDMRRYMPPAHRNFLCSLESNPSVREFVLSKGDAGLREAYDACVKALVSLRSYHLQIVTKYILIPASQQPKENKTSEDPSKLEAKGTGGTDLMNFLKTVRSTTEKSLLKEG

For this assay, the target named is Recombinant human IDO (Homo sapiens, UniProt P14902). Description: Bridge-IT tryptophan fluorescence assay of human IDO-1 inhibition. It is filed as biochemical. The note with it: recombinant human IDO 7.5 nM, L-tryptophan. The protocol:
Measurement of human IDO-1 inhibition is performed in 384 well format using the Bridge-IT® tryptophan Fluorescence Assay (Mediomics, LLC, St. Louis, Mo., U.S.A.).
The reaction is initiated by the addition of L-Tryptophan (Sigma) at a final concentration of 100 μM in assay buffer. After 90 minutes of incubation at 37° C., the reaction is stopped by transferring 1 μl of the reaction mixture to 9 μl of Bridge-IT assay solution A. After 30 min of incubation at 30° C., the fluorescence intensity was measured at λex=485 nm and λem=665 nm using Perkin Elmer Envision® Multilabel Reader.
Measurement of human IDO-1 inhibition was performed in 384-well format using the BRIDGE-IT® tryptophan Fluorescence Assay (Mediomics, LLC, St. Louis, Mo., U.S.A.). […] After 30 minutes of pre-incubation at 25° C., the reaction was initiated by the addition of L-Tryptophan (Sigma) at a final concentration of 50 μM in assay buffer. After 60 minutes of incubation at 25° C., the reaction is stopped by transferring 1 μl of the reaction mixture to 9 μl of Bridge-IT assay solution A. After 30 min of incubation at 30° C., the fluorescence intensity was measured at λex=485 nm and λem=665 nm using Perkin Elmer ENVISION® Multilabel Reader.
`OC1CCC(C(O)CC2c3c(ccnc3F)-c3cncn32)CC1` (mixture of isomers) [Compound 4a, 4-(2-[9-fluoro-4,6,10-triazatricyclo[6.4.0.0^[2,6]]dodeca-1(8),2,4,9,11-pentaen-7-yl]-1-hydroxyethyl) cyclohexan-1-ol]: the IC50 was above 1 µM. `OC1CCC(F)(CCC2c3ncccc3-c3cncn32)CC1` (mixture of isomers) [Compound 7a, 4-fluoro-4-(2-{4,6,9-triazatricyclo[6.4.0.0^[2,6]]dodeca-1(8),2,4,9,11-pentaen-7-yl}ethyl)cyclohexan-1-ol]: the half-maximal inhibitory concentration (IC50) is above 1 µM.

Regarding `OC1CCC(F)(CCC2c3ncccc3-c3cncn32)CC1` (mixture of isomers) [Compound 7b, 4-fluoro-4-(2-{4,6,9-triazatricyclo[6.4.0.0^[2,6]]dodeca-1(8),2,4,9,11-pentaen-7-yl}ethyl)cyclohexan-1-ol], the IC50 is above 1 µM. Next, `OC(CC1c2ncncc2-c2cncn21)C1CCCCC1` (mixture of isomers) [Compound 67d, 1-cyclohexyl-2-[4,6,9,11-tetraazatricyclo[6.4.0.0^[2,6]]dodeca-1(8),2,4,9,11-pentaen-7-yl]ethan-1-ol]: above 1 µM; `OC(CC1c2nc(OC3CC3)ccc2-c2cncn21)C1CCCCC1` (mixture of isomers) [Compound 68b, 1-cyclohexyl-2-[10-cyclopropoxy-4,6,9-triazatricyclo[6.4.0.0^[2,6]]dodeca-1(8),2,4,9,11-pentaen-7-yl]ethan-1-ol]: above 1 µM. The figure for `OC1CCC(C(F)(F)CC2c3ccccc3-c3cncn32)CC1` (mixture of isomers) [Compound 74a, 4-(1,1-difluoro-2-[5H-imidazo[4,3-a]isoindol-5-yl]ethyl)cyclohexan-1-ol] is below 0.1 µM; for `OC1CCC(C(F)(F)CC2c3ccccc3-c3cncn32)CC1` (mixture of isomers) [Compound 74b, 4-(1,1-difluoro-2-[5H-imidazo[4,3-a]isoindol-5-yl]ethyl)cyclohexan-1-ol] it is 0.1 to 1 µM. As to `OC1CCC(C(F)(F)CC2c3c(F)cccc3-c3cncn32)CC1` (mixture of isomers) [Compound 75b, 4-(1,1-difluoro-2-[6-fluoro-5H-imidazo[4,3-a]isoindol-5-yl]ethyl)cyclohexan-1-ol], the IC50 lay in the range of 0.1 to 1 µM.

In the case of `OC1CCC(C(F)(F)CC2c3c(F)ccc(F)c3-c3cncn32)CC1` (mixture of isomers) [Compound 78a, 4-(2-[6,9-difluoro-5H-imidazo[4,3-a]isoindol-5-yl]-1,1-difluoroethyl)cyclohexan-1-ol], the concentration for half-maximal inhibition (IC50) is 0.1 to 1 µM. The figure for `OC1CCC(C(F)(F)CC2c3c(F)ccc(F)c3-c3cncn32)CC1` (mixture of isomers) [Compound 78b, 4-(2-[6,9-difluoro-5H-imidazo[4,3-a]isoindol-5-yl]-1,1-difluoroethyl)cyclohexan-1-ol] is above 1 µM. The figure for `OC1(C2CCC(F)(CCC3c4c(F)cccc4-c4cncn43)CC2)CC1` (mixture of isomers) [Compound 85a, 1-[4-fluoro-4-(2-[6-fluoro-5H-imidazo[4,3-a]isoindol-5-yl]ethyl)cyclohexyl]cyclopropan-1-ol] is below 0.1 µM. Next, `CC(C)(O)C1CCC(F)(CCC2c3c(F)cccc3-c3cncn32)CC1` (mixture of isomers) [Compound 86b, 2-[4-fluoro-4-(2-[6-fluoro-5H-imidazo[4,3-a]isoindol-5-yl]ethyl)cyclohexyl]propan-2-ol]: below 0.1 µM. For the compound `O=C(C1CCC(F)(CCC2c3ncccc3-c3cncn32)CC1)N1CCCCC1` (mixture of isomers) [Compound 100a, 7-[2-[1-Fluoro-4-[(piperidin-1-yl)carbonyl]cyclohexyl]ethyl]-4,6,9-triazatricyclo[6.4.0.0^[2,6]]dodeca-1(8),2,4,9,11-pentaene], the IC50 lay in the range of 0.1 to 1 µM. Next, `O=C(C1CCC(F)(CCC2c3ncccc3-c3cncn32)CC1)N1CCCCC1` (mixture of isomers) [Compound 100b, 7-[2-[1-Fluoro-4-[(piperidin-1-yl)carbonyl]cyclohexyl]ethyl]-4,6,9-triazatricyclo[6.4.0.0^[2,6]]dodeca-1(8),2,4,9,11-pentaene]: above 1 µM. The figure for `OC1CCC(F)(CCC2c3nccc(F)c3-c3cncn32)CC1` (mixture of isomers) [Compound 103a, 4-fluoro-4-(2-[12-fluoro-4,6,9-triazatricyclo[6.4.0.0^[2,6]]dodeca-1(8),2,4,9,11-pentaen-7-yl]ethyl)cyclohexan-1-ol] is above 1 µM; for `NC1CCC(F)(CCC2c3ccccc3-c3cncn32)CC1` (mixture of isomers) [Compound 104a, 4-fluoro-4-(2-[5H-imidazo[4,3-a]isoindol-5-yl]ethyl)cyclohexan-1-amine] it is above 1 µM; for `NC1CCC(F)(CCC2c3ccccc3-c3cncn32)CC1` (mixture of isomers) [Compound 104b, 4-fluoro-4-(2-[5H-imidazo[4,3-a]isoindol-5-yl]ethyl)cyclohexan-1-amine] it is 0.1 to 1 µM.

Turning to `OCC1CCC(F)(CCC2c3c(Cl)cccc3-c3cncn32)CC1` (mixture of isomers) [Compound 105b, [4-[2-[6-chloro-5H-imidazo[4,3-a]isoindol-5-yl]ethyl]-4-fluorocyclohexyl]methanol], the half-inhibitory concentration (IC50) was above 1 µM. Next, `OC1(C2CCC(F)(CCC3c4c(Cl)cccc4-c4cncn43)CC2)CC1` (mixture of isomers) [Compound 106a, 1-[4-(2-[6-chloro-5H-imidazo[4,3-a]isoindol-5-yl]ethyl)-4-fluorocyclohexyl]cyclopropan-1-ol]: below 0.1 µM; `CC(C)(O)C1CCC(F)(CCC2c3c(Cl)cccc3-c3cncn32)CC1` (mixture of isomers) [Compound 107a, 2-[4-(2-[6-chloro-5H-imidazo[4,3-a]isoindol-5-yl]ethyl)-4-fluorocyclohexyl]propan-2-ol]: above 1 µM. Next, `FC(CC1c2ccccc2-c2cncn21)C1CCCCC1` (mixture of isomers) [Compound 108a, 5-[2-cyclohexyl-2-fluoroethyl]-5H-imidazo[4,3-a]isoindole]: 0.1 to 1 µM. Next, `O=C(C1CCC(F)(CCC2c3c(F)cccc3-c3cncn32)CC1)N1CCCCC1` (mixture of isomers) [Compound 110b]: 0.1 to 1 µM; `CN(C)C(=O)C1CCC(F)(CCC2c3c(F)cccc3-c3cncn32)CC1` (mixture of isomers) [Compound 111a, 4-fluoro-4-(2-[6-fluoro-5H-imidazo[4,3-a]isoindol-5-yl]ethyl)-N,N-dimethylcyclohexane-1-carboxamide]: below 0.1 µM.

On to `COc1ccc2c(n1)C(CC(N)C1CCCCC1)n1cncc1-2` (mixture of isomers) [Compound 118a, 1-cyclohexyl-2-[10-methoxy-4,6,9-triazatricyclo[6.4.0.0^[2,6]]dodeca-1(8),2,4,9,11-pentaen-7-yl]ethan-1-amine], for which the IC50 was above 1 µM. `FC(F)(CC1c2ccccc2-c2cncn21)C1CCCCC1` (racemic) [Compound 64, 5-(2-cyclohexyl-2,2-difluoroethyl)-5H-imidazo[4,3-a]isoindole]: the concentration for half-maximal inhibition (IC50) fell in the range of 0.1 to 1 µM.

On to `Fc1cccc2c1C(CC(F)(F)C1CCCCC1)n1cncc1-2` (racemic) [Compound 65, 5-(2-cyclohexyl-2,2-difluoroethyl)-6-fluoro-5H-imidazo[4,3-a]isoindole], for which the IC50 was in the range of 0.1 to 1 µM.
